# Reference: US11339144B2 (Navitor Pharmaceuticals, Inc., priority 2017, dated 2022)
# Biological target: HA-GST-Rheb (GTP-γ-S loaded) activating mTORC1 (Homo sapiens (Human), UniProt Q15382)
# Experiment: Rheb-dependent in vitro kinase assay (Rheb-IVK; LanthaScreen or Western readout)
# Format: biochemical
# Parameters: IVK IC50 (μM): scale not given here
# Details: Rheb-dependent in vitro kinase assay
# HA-GST-Rheb (GTP-γ-S loaded) activating mTORC1, sequence (Q15382 1-181): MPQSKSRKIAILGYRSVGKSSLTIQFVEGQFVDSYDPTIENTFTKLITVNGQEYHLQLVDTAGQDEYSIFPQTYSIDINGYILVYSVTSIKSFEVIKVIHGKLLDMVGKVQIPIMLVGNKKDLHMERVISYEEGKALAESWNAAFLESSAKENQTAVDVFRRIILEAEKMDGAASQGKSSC
row,IVK IC50 (μM),SMILES
1,E/F,Cc1cc(Oc2ccccc2)cc2c1cc(CO)n2Cc1nc[nH]n1 [I-234]

# Same assay, conditions: Rheb-dependent in vitro kinase assay; read-out: IVK IC50
row,IC50 [µM],SMILES
1,10 to 100,"OCc1nc2c(OC[C@H]3CCCC[C@@H]3O)c(Cl)c(Cl)cc2[nH]1 (racemic) [I-383, (+,−)-trans-2-((5,6-dichloro-2-(hydroxymethyl)-1H-benzo[d]imidazol-4-yloxy)methyl)cyclohexanol]"
2,100 to 300,"Cn1c(CO)nc2c(OC[C@H]3CCCC[C@@H]3O)c(Cl)c(Cl)cc21 (racemic) [I-387, (+,−)-trans-2-((5,6-dichloro-2-(hydroxymethyl)-1-methyl-1H-benzo[d]imidazol-4-yloxy)methyl)cyclohexanol]"
3,10 to 100,"OCc1nc2c(OC[C@H]3CCCC[C@@H]3O)c(Cl)c(Cl)cc2n1Cc1nn[nH]n1 (racemic) [I-391, (+,−)-trans-2-((1-((2H-tetrazol-5-yl)methyl)-5,6-dichloro-2-(hydroxymethyl)-1H-benzo[d]imidazol-4-yloxy)methyl)cyclohexanol]"
4,> 100,COC(=O)c1cc2c(Sc3ccc(Cl)cc3Cl)cc(Cl)cc2n1Cc1ccc(Br)cc1 [I-104]
5,100 to 300,"COc1ccc(Sc2cc(Cl)cc3[nH]c(C(=O)O)cc23)cc1OC [I-138, 6-chloro-4-(3,4-dimethoxyphenylthio)-1H-indole-2-carboxylic acid]"
6,> 100,OCc1cc2c(Cl)cc(Oc3ccccc3)cc2n1Cc1c[nH]cn1 [I-174]
7,> 100,O=C(c1ccc(Cl)cc1)c1cccc2[nH]ccc12 [I-178]
8,> 100,Clc1ccc(Cc2cccc3[nH]ccc23)cc1 [I-179]
9,> 100,OCc1cc2cc(Sc3ccccc3)ccc2n1Cc1nc[nH]n1 [I-181]
10,> 100,OCc1ccc(Sc2cccc3[nH]ccc23)cc1 [I-183]
11,> 100,CNC(=O)c1ccc(Sc2cccc3[nH]ccc23)cc1 [I-184]
12,> 100,COC(=O)c1ccc(Sc2cccc3[nH]ccc23)cc1 [I-188]
13,> 100,c1cnc(Nc2cccc3[nH]ccc23)nc1 [I-189]
14,> 100,Clc1ccc(CSc2cccc3[nH]ccc23)cc1Cl [I-191]
15,> 100,O=C(O)c1ccc(Sc2cccc3[nH]ccc23)cc1 [I-192]
16,> 100,O=C(O)c1cc(Sc2ccc(Cl)cc2)c2cc[nH]c2c1 [I-193]
17,> 100,COc1cccc(Sc2cccc3[nH]ccc23)c1 [I-195]
18,10 to 100,"Clc1ccc(Sc2cccc3c2ccn3Cc2nc[nH]n2)cc1 [I-196, 1-((1H-1,2,4-triazol-3-yl)methyl)-4-(4-chlorophenylthio)-1H-indole]"
19,> 100,COC(=O)c1cc(Sc2ccc(Cl)cc2)c2cc[nH]c2c1 [I-197]
20,> 100,OCc1cc2c(C3CCNCC3)cc(Oc3ccccc3)cc2[nH]1 [I-199]
21,> 100,Clc1ccc(Sc2cc(Sc3ccc(Cl)cc3)c3cc[nH]c3c2)cc1 [I-200]
22,10 to 100,"Clc1ccc(Sc2cc(Cl)c3cc[nH]c3c2)cc1 [I-201, 4-chloro-6-(4-chlorophenylthio)-1H-indole]"
23,> 100,Cc1cc2c(Sc3ccc(Cl)cc3)cccc2[nH]1 [I-203]

row,IC50 [µM],SMILES
1,> 100,Cn1ccc2c(Sc3ccc(Cl)cc3)cc(Cl)cc21 [I-205]
2,> 100,Cn1c(CO)cc2c(Sc3ccc(Cl)cc3)cc(Cl)cc21 [I-206]
3,> 100,c1ccc(Sc2cccc3[nH]ccc23)nc1 [I-210]
4,> 100,Clc1ccc(Sc2cccc3[nH]ccc23)cc1Cl [I-211]
5,> 100,Cn1ccc(-c2cc(Oc3ccccc3)cc3[nH]c(CO)cc23)n1 [I-213]
6,> 100,OCc1cc2ccc(Oc3ccccc3)cc2n1Cc1nc[nH]n1 [I-214]
7,> 100,Clc1ccc(Sc2cccc3cc[nH]c23)cc1 [I-217]
8,> 100,OCc1cc2c(C3CCCNC3)cc(Oc3ccccc3)cc2[nH]1 (stereo not drawn) [I-219]
9,> 100,OCc1cc2c(Br)cc(Oc3ccccc3)cc2n1Cc1ccc(-c2nn[nH]n2)cc1 [I-221]
10,> 100,OCc1cc2c(C3CCCCC3)cc(Oc3ccccc3)cc2[nH]1 [I-223]
11,> 100,OCc1cc2c(Br)cc(OCc3ccccc3)cc2n1Cc1ccccc1 [I-224]
12,> 100,OCc1cc2c(Br)cc(Oc3ccccc3)cc2n1Cc1nc[nH]n1 [I-225]
13,> 100,Cn1cc(-c2cc(Oc3ccccc3)cc3[nH]c(CO)cc23)cn1 [I-227]
14,> 100,Clc1cccc(Cl)c1Oc1cccc2[nH]ccc12 [I-228]
15,> 100,[O-][S+](c1ccccc1)c1cc(Br)c2cc(CO)[nH]c2c1 (stereo not drawn) [I-229]
16,> 100,O=S(=O)(c1ccccc1)c1cc(Br)c2cc(CO)[nH]c2c1 [I-230]
17,> 100,[O-][S+](c1ccccc1Cl)c1cccc2[nH]ccc12 (stereo not drawn) [I-231]
18,> 100,O=S(=O)(c1ccccc1Cl)c1cccc2[nH]ccc12 [I-232]
19,> 100,[O-][S+](c1cccc(Cl)c1)c1cccc2[nH]ccc12 (stereo not drawn) [I-233]
20,> 100,Cc1cc(Oc2ccccc2)cc2[nH]c(CO)cc12 [I-238]
21,> 100,O=S(=O)(c1cccc(Cl)c1)c1cccc2[nH]ccc12 [I-240]
22,> 100,O=S(=O)(c1ccc(Cl)cc1)c1cccc2[nH]ccc12 [I-242]
23,> 100,Cc1cc(Oc2ccccc2)cc2c1cc(CO)n2C [I-245]

row,IC50 [µM],SMILES
1,> 100,O=C(O)CCc1cc2c(Oc3ccccc3)c(Cl)ccc2[nH]1 [I-253]
2,> 100,Clc1cc2cc[nH]c2cc1Oc1ccccc1 [I-258]
3,> 100,Cn1c(CO)cc2c(Oc3ccc(Cl)cc3)cccc21 [I-259]
4,> 100,CC(=O)OCCc1cc2c(Oc3ccccc3)c(Cl)ccc2[nH]1 [I-260]
5,> 100,Cn1c(CO)cc2c(Oc3cccc(F)c3)cccc21 [I-262]
6,> 100,OCc1cc2c(Oc3cccc(F)c3)cccc2[nH]1 [I-264]
7,> 100,Cn1ccc2c(Oc3ccc(F)cc3)cccc21 [I-265]
8,> 100,Cn1ccc2c(Oc3cccc(F)c3)cccc21 [I-266]
9,> 100,Cn1ccc2c(Oc3ccc(Cl)cc3)cccc21 [I-268]
10,> 100,Cn1ccc2c(Oc3ccccc3Cl)cccc21 [I-269]
11,> 100,Cn1ccc2c(Oc3cccc(Cl)c3)cccc21 [I-270]
12,> 100,Cn1c(CO)cc2c(Oc3ccccc3Cl)cccc21 [I-272]
13,> 100,Cn1c(CO)cc2c(Oc3ccc(F)cc3)cccc21 [I-273]
14,> 100,Cn1c(CO)cc2c(Oc3ccccc3F)cccc21 [I-274]
15,100 to 300,"OCc1cc2c(Oc3ccccc3Cl)cccc2[nH]1 [I-276, (4-(2-chlorophenoxy)-1H-indol-2-yl)methanol]"
16,300 to 800,"OCc1cc2c(Oc3ccccc3F)cccc2[nH]1 [I-277, (4-(2-fluorophenoxy)-1H-indol-2-yl)methanol]"
17,300 to 800,"OCc1cc2c(Oc3ccc(F)cc3)cccc2[nH]1 [I-278, (4-(4-fluorophenoxy)-1H-indol-2-yl)methanol]"
18,> 100,OCc1cc2c(OCCc3ccccc3)cc(Cl)cc2[nH]1 [I-279]
19,> 100,Cn1c(CO)cc2c(Oc3ccccc3)cccc21 [I-280]
20,> 100,Cn1c(CO)cc2c(Oc3ccccc3)cc(Cl)cc21 [I-281]
21,10 to 100,"Clc1cccc(Oc2cccc3[nH]ccc23)c1 [I-284, 4-(3-chlorophenoxy)-1H-indole]"
22,> 100,Clc1ccccc1Oc1cccc2[nH]ccc12 [I-285]
23,300 to 800,"OCc1cc2ccc(Oc3ccccc3)cc2[nH]1 [I-286, (6-Phenoxy-1H-indol-2-yl)methanol]"

row,IC50 [µM],SMILES
1,> 100,OCc1cc2c(Oc3ccccc3)cccc2[nH]1 [I-287]
2,> 100,Cn1c(CO)cc2c(Oc3ccccc3)c(Cl)ccc21 [I-289]
3,> 100,Cn1c(CO)cc2c(OCc3ccccc3)cc(Cl)cc21 [I-292]
4,> 100,OCc1cc2c(OCc3ccccc3)cc(Cl)cc2[nH]1 [I-294]
5,300 to 800,"Cn1ccc2c(NC3CCNCC3)cccc21 [I-297, 1-methyl-N-(piperidin-4-yl)-1H-indol-4-amine]"
6,> 100,Cn1ccc2c(NC3CCCNC3)cccc21 (stereo not drawn) [I-298]
7,> 3,"Clc1cc2nc(-c3ccncc3)[nH]c2c(Cl)c1Cl [I-353, 5,6,7-trichloro-2-(pyridin-4-yl)-1H-benzo[d]imidazole]"
8,> 100,OCc1nc2c(OC[C@H]3CCCC[C@@H]3O)c(Cl)c(Cl)cc2n1Cc1nc[nH]n1 [I-392]
9,> 100,OCc1nc2c(OC[C@H]3CCCC[C@@H]3O)c(Cl)c(Cl)cc2n1Cc1cc(Cl)ccc1Cl [I-393]
10,> 100,OCc1nc2ccc(Oc3ccccc3)cc2n1Cc1nc[nH]n1 [I-397]
11,> 100,OCc1nc2c(OCC3CCCCO3)c(Cl)c(Cl)cc2[nH]1 (stereo not drawn) [I-398]
12,100 to 300,"OCc1nc2c(OCC3CCCO3)c(Cl)c(Cl)cc2[nH]1 (stereo not drawn) [I-400, (5,6-dichloro-4-((tetrahydrofuran-2-yl)methoxy)-1H-benzo[d]imidazol-2-yl) methanol bis (2,2,2-trifluoroacetate)]"
13,> 100,CCn1c(CO)nc2cc(OCc3cccc(Cl)c3)c(Cl)cc21 [I-401]
14,> 100,OCc1nc2cc(Cl)c(OCc3ccccc3)cc2n1Cc1nc[nH]n1 [I-402]
15,100 to 300,"OCc1nc2cc(OCc3ccccc3)c(Cl)cc2n1Cc1nc[nH]n1 [I-403, (1-((1H-1,2,4-triazol-3-yl)methyl)-5-(benzyloxy)-6-chloro-1H-benzo[d]imidazol-2-yl)methanol]"
16,> 100,OCc1nc2c(Oc3ccccc3)cc(Cl)cc2[nH]1 [I-404]
17,> 100,OCc1nc2c(OCc3cncnc3O)c(Cl)c(Cl)cc2[nH]1 [I-405]
18,> 100,OCc1nc2c(Br)cc(Oc3ccccc3)cc2n1Cc1nc[nH]n1 [I-406]
19,> 100,"OCc1nc2c(Oc3ccccc3Cl)cccc2n1Cc1nc[nH]n1 [I-407, (1-((1H-1,2,4-triazol-3-yl)methyl)-4-(2-chlorophenoxy)-1H-benzo[d]imidazol-2-yl)methanol]"
20,> 100,OCc1nc2c(Oc3ccc(Cl)cc3)cccc2n1Cc1nc[nH]n1 [I-408]
21,> 100,Nc1ncncc1COc1c(Cl)c(Cl)cc2[nH]c(CO)nc12 [I-409]
22,> 100,Clc1ccc2c(c1)nc(-c1ncco1)n2Cc1ccc(-c2nn[nH]n2)cc1 [I-410]

row,SMILES,IC50 [µM]
1,OCc1nc2c(OCCc3c[nH]cn3)c(Cl)c(Cl)cc2[nH]1 [I-384],> 100
